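Cultured in 96-well plates, cells were exposed to test compound for 48 hours across five concentrations. Here, GI50 denotes the concentration required for 50% inhibition of growth. Definition used: TGI = concentration required for complete inhibition of growth.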
Legend:
Assay in all cases: NCI anticancer screen, dose series, 48 h
[1] = system: SNB-19 CNS
[2] = system: MALME-3M melanoma
[3] = system: UACC-62 melanoma
[4] = system: U251 CNS
[5] = system: ACHN renal
[6] = system: UACC-257 melanoma
[7] = system: SK-OV-3 ovarian
[8] = system: HL-60(TB) leukemia
[9] = system: CCRF-CEM leukemia
[10] = system: SF-268 CNS
[11] = system: NCI-H23 lung
[12] = system: NCI-H522 lung
[13] = system: A498 renal
[14] = system: K-562 leukemia
[15] = system: MDA-MB-231 breast
[16] = system: HCC-2998 colon
[17] = system: MDA-MB-435
[18] = system: PC-3 prostate
[19] = system: UO-31 renal
[20] = system: SF-295 CNS
[21] = system: SK-MEL-5 melanoma
[22] = system: OVCAR-8 ovarian
[23] = system: IGROV1 ovarian
[24] = system: OVCAR-5 ovarian
[25] = system: TK-10 renal
[26] = system: NCI-H226 lung
[27] = system: CAKI-1 renal
[28] = system: M14 melanoma
[29] = system: RPMI-8226 leukemia

CC(C)(C)c1[nH]nc2c1C(c1cc3ccccc3[nH]c1=O)Nc1cc(C(=O)Nc3ccc(Cl)cc3)ccc1N2 (configuration not stated)
GI50 [1]: 2.68 µM
TGI [1]: 11.9 µM
GI50 [2]: 1.92 µM
TGI [2]: 4.41 µM
GI50 [3]: 2.03 µM
TGI [3]: 4.41 µM
GI50 [4]: 3.08 µM
TGI [4]: 11.4 µM
GI50 [5]: 4.71 µM
TGI [5]: > 64.7 µM
GI50 [6]: 2.33 µM
TGI [6]: 7.31 µM
GI50 [7]: 3.04 µM
TGI [7]: 8.01 µM
GI50 [8]: 2.33 µM
TGI [8]: 5.64 µM
GI50 [9]: 2.16 µM
TGI [9]: > 21.6 µM
GI50 [10]: 3.66 µM
TGI [10]: 29.5 µM
GI50 [11]: 2.6 µM
TGI [11]: 7.31 µM
GI50 [12]: 2.71 µM
TGI [12]: 6.94 µM
GI50 [13]: 1.58 µM
TGI [13]: 3.8 µM
GI50 [14]: 2.94 µM
TGI [14]: > 54.9 µM
GI50 [15]: 2.26 µM
TGI [15]: 6.32 µM
GI50 [16]: 2.64 µM
TGI [16]: 6.52 µM
GI50 [17]: 1.84 µM
TGI [17]: 4.84 µM
GI50 [18]: 3.15 µM
TGI [18]: 11.7 µM
GI50 [19]: 46 µM
TGI [19]: > 100 µM
GI50 [20]: 2.77 µM
TGI [20]: 8.82 µM
GI50 [21]: 1.77 µM
TGI [21]: 3.55 µM
GI50 [22]: 3.04 µM
TGI [22]: 11 µM
GI50 [23]: 3.28 µM
TGI [23]: 8.95 µM
GI50 [24]: 3.84 µM
TGI [24]: 39 µM
GI50 [25]: 3.71 µM
TGI [25]: 17.2 µM
GI50 [26]: 2.94 µM
TGI [26]: 11.1 µM
GI50 [27]: > 100 µM
TGI [27]: > 100 µM
GI50 [28]: 2.12 µM
TGI [28]: 4.75 µM
GI50 [29]: 1.9 µM
